Laboratory results published in patent US20240391862A1, “(1,4,5-TRISUBSTITUTED-1H-PYRAZOL-3-YL)OXY-2-ALKOXY ALKYL ACIDS AND THEIR DERIVATIVES, THEIR SALTS AND THEIR USE AS HERBICIDAL AGENTS” (Bayer AKtiengesellschaft, priority 2021, published 2024).

Columns and labels:
VIOTR = test: Post-emergence herbicidal effect, greenhouse pot test; assay type: in vivo, Viola tricolor; conditions: Viola tricolor, 504 h, 320 g/ha, read-out: Post-emergence effect against VIOTR in %
How it was run: (§1)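 Visual % activity scored roughly 3 weeks post-spray against untreated plants, where 100% means death and 0% equals control. Plants were treated at the one-leaf stage, 2 to 3 weeks after sowing in sandy loam, at 20 to 320 g/ha.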

ECHCG [1] = test: Pre-emergence herbicidal effect, greenhouse pot test; assay type: in vivo, Echinochloa crus-galli; conditions: Echinochloa crus-galli, 504 h, 320 g/ha, scored visually after about 3 weeks vs untreated controls, read-out: Pre-emergence effect at 320 g/ha against ECHCG in %
Excerpt: (§2) Seeds of monocotyledonous and dicotyledonous weed plants and crop plants are placed in plastic or organic planting pots and covered with soil. The compounds of the invention, formulated in the form of wettable powders (WP) or as emulsion concentrates (EC), are then applied to the surface of the covering soil as aqueous suspension or emulsion with addition of 0.5% additive at a water application rate equivalent to 600 l/ha. After the treatment, the pots are placed in a greenhouse and kept under good growth conditions for the trial plants. After about 3 weeks, the effect of the preparations is scored visually in comparison with untreated controls as percentages. For example, 100% activity=the plants have died, 0% activity=like control plants.
(§3) Tables 1a to 19c below show the effects/crop compatibilities of selected compounds of the general formula (I) on various harmful plants at an application rate corresponding to 20 to 320 g/ha, which were obtained by the trial procedure specified above.
(§4) • ALOMY: Alopecurus myosuroides SETVI: Setaria viridis • AVEFA: Avena fatua POLCO: Fallopia convolvulus • AMARE: Amaranthus retroflexus ECHCG: Echinochloa crus-galli • LOLRJ: Lolium rigidum STEME: Stellaria media • VERPE: Veronica persica MATIN: Tripleurospermum inodorum • DIGSA: Digitaria sanguinalis ABUTH: Abutylon threophrasti • TRZAS: Triticum aestivum VIOTR: Viola tricolor • BRSNW: Brassica napus ZEAMX: Zea mays • PHBPU: Ipomoea purpurea GLXMA: Glycine max • ORYSA: Oryza sativa HORMU: Hordeum murinum

POLCO [2] = test: as above; assay type: in vivo, Fallopia convolvulus; conditions: Fallopia convolvulus, 504 h, 320 g/ha, scored visually after about 3 weeks vs untreated controls, read-out: Pre-emergence effect at 320 g/ha against POLCO in %
Excerpt: as §2, §3, §4

ECHCG [3] = test: Post-emergence herbicidal effect, greenhouse pot test; assay type: in vivo, Echinochloa crus-galli; conditions: Echinochloa crus-galli, 504 h, read-out: Post-emergence effect against ECHCG in %
How it was run: as §1

PHBPU [4] = test: Pre-emergence herbicidal effect, greenhouse pot test; assay type: in vivo, Ipomoea purpurea; conditions: 320 g/ha, scored visually after about 3 weeks vs untreated controls
Excerpt: as §2, §3, §4

AVEFA [5] = test: Post-emergence herbicidal effect, greenhouse pot test; assay type: in vivo, Avena fatua; conditions: Avena fatua, 504 h, 320 g/ha, visual rating about 3 weeks after treatment, read-out: Post-emergence effect against AVEFA
How it was run: as §1

GLXMA = test: Pre-emergence herbicidal effect and crop plant compatibility, greenhouse pot test; assay type: in vivo, Glycine max; conditions: 80 g/ha, scored visually after about 3 weeks vs untreated controls
Excerpt: as §2, §3, §4

PHBPU [6] = test: Post-emergence herbicidal effect, greenhouse pot test; assay type: in vivo, Ipomoea purpurea; conditions: Ipomoea purpurea, 504 h, read-out: Post-emergence effect against PHBPU in %
How it was run: as §1

SETVI [7] = test: as above; assay type: in vivo, Setaria viridis; conditions: Setaria viridis, 504 h, read-out: Post-emergence effect against SETVI in %
How it was run: as §1

MATIN [8] = test: as above; assay type: in vivo, Tripleurospermum inodorum; conditions: Tripleurospermum inodorum, 504 h, read-out: Post-emergence effect against MATIN in %
How it was run: as §1

TRZAS = test: Pre-emergence herbicidal effect and crop plant compatibility, greenhouse pot test; assay type: in vivo, Triticum aestivum; conditions: 80 g/ha, scored visually after about 3 weeks vs untreated controls
Excerpt: as §2, §3, §4

ALOMY [9] = test: Post-emergence herbicidal effect, greenhouse pot test; assay type: in vivo, Alopecurus myosuroides; conditions: Alopecurus myosuroides, 504 h, visual rating about 3 weeks after treatment, read-out: Post-emergence effect against ALOMY
How it was run: as §1

AMARE = test: Pre-emergence herbicidal effect, greenhouse pot test; assay type: in vivo, Amaranthus retroflexus; conditions: scored visually after about 3 weeks vs untreated controls; for pest or weed control at 320 g/ha: Amaranthus retroflexus, 504 h, read-out: Pre-emergence effect at 320 g/ha against AMARE in %
Excerpt: as §2, §3, §4

ALOMY [10] = test: as above; assay type: in vivo, Alopecurus myosuroides; conditions: 320 g/ha, scored visually after about 3 weeks vs untreated controls
Excerpt: as §2, §3, §4

MATIN [11] = test: as above; assay type: in vivo, Tripleurospermum inodorum; conditions: scored visually after about 3 weeks vs untreated controls; for pest or weed control at 320 g/ha: Tripleurospermum inodorum, 504 h, read-out: Pre-emergence effect at 320 g/ha against MATIN in %
Excerpt: as §2, §3, §4

VERPE = test: Post-emergence herbicidal effect, greenhouse pot test; assay type: in vivo, Veronica persica; conditions: Veronica persica, 504 h, read-out: Post-emergence effect against VERPE in %
How it was run: as §1

LOLRI [12] = test: Pre-emergence herbicidal effect, greenhouse pot test; assay type: in vivo, Lolium rigidum; conditions: 320 g/ha, scored visually after about 3 weeks vs untreated controls
Excerpt: as §2, §3, §4

LOLRI [13] = test: Post-emergence herbicidal effect, greenhouse pot test; assay type: in vivo, Lolium rigidum; conditions: Lolium rigidum, 504 h, read-out: Post-emergence effect against LOLRI in %
How it was run: as §1

SETVI [14] = test: Pre-emergence herbicidal effect, greenhouse pot test; assay type: in vivo, Setaria viridis; conditions: Setaria viridis, 504 h, 320 g/ha, scored visually after about 3 weeks vs untreated controls, read-out: Pre-emergence effect at 320 g/ha against SETVI in %
Excerpt: as §2, §3, §4

AVEFA [15] = test: as above; assay type: in vivo, Avena fatua; conditions: 320 g/ha, scored visually after about 3 weeks vs untreated controls
Excerpt: as §2, §3, §4

POLCO [16] = test: Post-emergence herbicidal effect, greenhouse pot test; assay type: in vivo, Fallopia convolvulus; conditions: Fallopia convolvulus, 504 h, read-out: Post-emergence effect against POLCO in %
How it was run: as §1

DIGSA [17] = test: as above; assay type: in vivo, Digitaria sanguinalis; conditions: Digitaria sanguinalis, 504 h, visual rating about 3 weeks after treatment, read-out: Post-emergence effect against DIGSA
How it was run: as §1

DIGSA [18] = test: Pre-emergence herbicidal effect, greenhouse pot test; assay type: in vivo, Digitaria sanguinalis; conditions: 320 g/ha, scored visually after about 3 weeks vs untreated controls
Excerpt: as §2, §3, §4

ZEAMX = test: Pre-emergence herbicidal effect and crop plant compatibility, greenhouse pot test; assay type: in vivo, Zea mays; conditions: 80 g/ha, scored visually after about 3 weeks vs untreated controls
Excerpt: as §2, §3, §4

SMILES | pest or weed control at 320 g/ha (ECHCG [1]) | pest or weed control at 320 g/ha (POLCO [2]) | pest or weed control at 80 g/ha (ECHCG [3]) | pest or weed control at 320 g/ha (ECHCG [3]) | Pre-emergence effect at 320 g/ha against PHBPU in % (PHBPU [4]) | Pre-emergence effect at 80 g/ha against GLXMA in % (GLXMA) | pest or weed control at 320 g/ha (PHBPU [6]) | pest or weed control at 320 g/ha (SETVI [7]) | pest or weed control at 320 g/ha (MATIN [8]) | Pre-emergence effect at 80 g/ha against TRZAS in % (TRZAS) | pest or weed control at 80 g/ha (ALOMY [9]) | pest or weed control at 320 g/ha (ALOMY [9]) | Pre-emergence effect at 80 g/ha against AMARE in % (AMARE) | pest or weed control at 320 g/ha (AMARE) | pest or weed control at 320 g/ha (MATIN [11]) | other results
COC(=O)C(OC)Oc1nn(-c2ncccc2F)c(-c2ccccc2)c1Br (centres unmarked) [Example I-06] | 100% | 80% | 80% | 80% | 90% | 10% | 80% | 80% | 80% | 10% | 90% | 90% | 90% | 100% | 90% | pest or weed control at 320 g/ha (VIOTR): 80%; pest or weed control at 320 g/ha (AVEFA [5]): 80%; pest or weed control at 80 g/ha (PHBPU [6]; 80 g/ha): 80%; pest or weed control at 80 g/ha (SETVI [7]; 80 g/ha): 80%; pest or weed control at 80 g/ha (MATIN [8]; 80 g/ha): 80%; Pre-emergence effect at 320 g/ha against ALOMY in % (ALOMY [10]): 90%; Pre-emergence effect at 80 g/ha against MATIN in % (MATIN [11]; 80 g/ha): 80%
COC(=O)C(OC)Oc1nn(-c2ncccc2F)c(-c2ccc(F)cc2F)c1Br (centres unmarked) [Example I-07] | 90% | 80% | 80% | 80% | 90% | 10% | 80% | 80% | 80% | 20% | 90% | 90% | 80% | 90% | 90% | pest or weed control at 80 g/ha (VERPE; 80 g/ha): 80%; pest or weed control at 320 g/ha (VERPE; 320 g/ha): 80%; Pre-emergence effect at 320 g/ha against LOLRI in % (LOLRI [12]): 90%; pest or weed control at 80 g/ha (LOLRI [13]; 80 g/ha): 80%; pest or weed control at 320 g/ha (LOLRI [13]; 320 g/ha): 80%; pest or weed control at 320 g/ha (SETVI [14]): 100%; Pre-emergence effect at 320 g/ha against AVEFA in % (AVEFA [15]): 80%; pest or weed control at 80 g/ha (POLCO [16]; 80 g/ha): 80%; pest or weed control at 320 g/ha (POLCO [16]; 320 g/ha): 90%; pest or weed control at 80 g/ha (DIGSA [17]; 80 g/ha): 80%; pest or weed control at 320 g/ha (DIGSA [17]; 320 g/ha): 90%; Pre-emergence effect at 320 g/ha against DIGSA in % (DIGSA [18]): 90%; Pre-emergence effect at 80 g/ha against ZEAMX in % (ZEAMX): 10%
